Data published in US11266715B2, “C3A receptor agonists for use against ischemic brain injury, stroke, traumatic brain injury, spinal cord injury and neurodegenerative disorders” (priority 2016, dated 2022).

System: mice subjected to neonatal HI injury
Test: Object recognition test after neonatal HI injury, 3 days intranasal treatment
Assay type: in vivo, mouse
Protocol: In the short-term study (3 days of intranasal treatment), 3 groups of WT mice were used; animals subjected to neonatal HI injury and treated with either C3a (HI-C3a, n=18) or PBS (HI-PBS, n=18) and sham-operated animals treated with PBS (SHAM-PBS, n=19). These mice were tested in an open field and object recognition test (ORT) at P50-P54 and brains were collected at P55 (FIG. 8A).
Neonatal HI injury was induced on postnatal day 9 (P9), as previously described with modifications for mice (Hedtjärn et al., 2002; Rice et al., 1981; Sheldon et al., 1998). Mice were anesthetized with 3.5% isoflurane (Baxter Medical, Kista, Sweden) for induction and 1.5% thereafter, in 1:1 oxygen and nitrous oxide. The left common carotid artery was dissected and permanently ligated with a prolene suture (6.0). The incision was closed and infiltrated with lidocaine (Xylocain®, Astra Zeneca, Gothenburg, Sweden). Mice were returned to the dam for 1 hour and then placed in a chamber with humidified air at 36° C. for 10 min, then exposed to humidified 10% oxygen in nitrogen for 30 min at 36° C., and then kept in humidified air at 36° C. for 10 min before being returned to the dam. Sham animals were subjected to an incision in the neck on P9. These pups were also removed from the dam for the time duration that injured animals stayed in the chamber, but remained instead in a warming tray at 36° C. under normal oxygen conditions. At postnatal day 21 (P21) mice were weaned and group housed with same sex littermates.
Purified human C3a (Complement Technology Inc., Tyler, Tex., USA) was diluted in sterile phosphate buffered saline (PBS) to a concentration of 200 nM, and a total of 8 μl i.e. […] (4 μl/nostril; corresponding to ca. 2.56 μg/kg body weight) of peptide solution or PBS was given intranasally to awake and hand-restrained mice held in a supine position. Solutions were administered through a pipette tip, drop-wise in 2 μl-portions divided by 1 min intervals to allow for absorption. […] C3a or PBS was given every 24 hours for three (short-term study) or seven (long-term study) days starting 1 h after HI induction, i.e. between P9 and P11 or P9 and P15, respectively. Mice in each litter were randomly assigned to C3a or PBS treatment. Sham animals received PBS. The investigators carrying out behavioural studies and analysing data were blinded to treatment group.
The object recognition test is based on the innate preference of mice to explore a novel object rather than a familiar one. Therefore, animals that remember the familiar object will spend more time exploring the novel object (Leger et al., 2013). From 3 days before starting the test, mice were daily handled for 2 min to minimize the possible stress due the researcher interaction. All experiments were performed at the same time of the day, between 9 am and […], and inside of a plastic box of 50×50×50 cm dimensions where the light intensity was dim and equal in all parts of the apparatus. […] Prior to the familiarization session, during which two identical objects were introduced, mice were habituated to the apparatus for 10 min during 3 consecutive days. Activity on the first habituation day was recorded as an open field test to assess locomotor and exploratory activities. During the familiarization session, two identical 250 ml bottles filled with shredded paper were placed at an equal distance from the arena walls (approximately 5 cm). […]

C3a: Purified human C3a peptide (Complement Technologies), C3a receptor agonist, amino acid sequence SEQ ID NO: 1
time exploring novel vs familiar object, long-term memory (24 h) (C3a treated mice p<0.05): significantly longer time exploring the novel compared to familiar object | exploratory behavior in the familiarization phase (intranasal C3a 3 days from 1 h post-HI): not altered | time exploring the novel object, short-term memory (6 h), vs PBS-treated mice post-HI (p<0.01): spent more time exploring the novel object | total object exploration time, long-term memory (24 h), vs PBS (p<0.05): longer | total object exploration time, short-term memory (6 h), vs PBS (p<0.05): longer total object exploration time
